Data taken from patent US9416347B2, “Method of treating bacterial contamination in a microalgae culture with pH shock” (Heliae Development LLC, priority 2014, dated 2016).
Structures can show the parent of a compound that is named as a salt. Where two headings read alike, the source gives them in different places.

How the values were obtained:
Chlorella sp. [1] = details: pH lowered from about 7.5 to 3.5 for 15 minutes, raised back with 5M NaOH
Method: The first 400 ml culture was maintained as an untreated control at a pH of about 7.5. […] The pH treatments were applied directly to the cultures, without previous concentration of the microalgae or subsequent dilution through inoculation into fresh culture media. All cultures were incubated with shaking at 100 rpm in 5% carbon dioxide and 25° C. […] 100 μM photon/m^2 s of light was also provided to create mixotrophic growth conditions. The cultures were monitored for 4 days (96 hours with dry weight samples taken at 0, 48, and 96 hours). Live bacteria count samples were taken at 0 and 48 hours, and quantified using aerobic colony forming units (CFU) obtained from plate counts utilizing Petrifilm available from 3M (St. Paul, Minn.). A bacteria to microalgae ratio was also quantified using guava flow cytometry.

Chlorella sp. [2] = details: culture at 1,029 mg/L acetate, pH 3.5 for 15 minutes, returned to 7.5 with 2 M NaOH
Method: The pH treated culture samples were maintained at the culture pH of 3.5 for 15 minutes before returning the culture pH to 7.5 by adding 2 M NaOH.
The pH treatment was applied directly into the culture, without previous concentration or subsequent dilution through inoculation into a fresh media. All cultures were incubated with shaking at 100 rpm in 5% carbon dioxide and 25° C. […] 100 μM photon/m^2 s of light was also provided to create mixotrophic growth conditions. The cultures were monitored for 4 days (96 hours with dry weight samples taken at 0, 48, and 96 hours). Residual acetate analyses were carried at the end of the experiment.

[3] = tested on: Vampirovibrio chlorellavorus; details: culture receiving the second pH treatment, 85% before treatment
Description: (§1) Some bacteria in the microalgae culture may attach to the cell wall of the microalgae, eventually lysing the cell wall of the microalgae and killing the microalgae. […] An example of bacteria known to attach to microalgae is Vampirovibrio chlorellavorus.
Samples were taken every two days to determine the cell dry weight (g/L) of the cultures.

[4] = tested on: bacteria attached to Chlorella
Description: as §1

Chlorella sp. [5] = details: for cell dry weight: second pH treatment 7.5 to 3.5 with HCl (18%) for 15 minutes, raised with 4 M NaOH
Chlorella = details: pH 3.5 with HCl (37%) for 15 minutes, open raceway pond
[6] = tested on: live bacteria in Chlorella culture; details: for bacteria count: pH 3.5 with HCl (37%) for 15 minutes, open raceway pond
Cytophaga sp. = details: pH treated versus untreated culture, over the life of the cultures

`Cl` [HCl, hydrochloric acid] showed a cell dry weight (Chlorella sp. [1]; 0 h) of 0.80 ± 0.03 g/L, a cell dry weight (Chlorella sp. [1]; 48 h) of 2.54 ± 0.00 g/L and a cell dry weight (Chlorella sp. [1]; 96 h) of 3.78 ± 0.00 g/L. The “Cell Dry Weight” value (Chlorella sp. [2]; 0 h) was 0.89 ± 0.01 g/L, the “Cell Dry Weight” value (Chlorella sp. [2]; 48 h) was 1.88 ± 0.04 g/L and the “Cell Dry Weight” value (Chlorella sp. [2]; 96 h) was 2.58 ± 0.01 g/L. For the same molecule, the bacteria attachment level ([3]; day 4 (96 h)) was “about 4.5%”, the bacteria attachment ([3]; within 48 hours) was 0% and the “time bacterial attachment remained below 10%” value ([4]; pH treated culture) was “over 100 hours”. The “bacterial attachment in the pH treated culture” value ([4]; within 12 hours, drop from about 50%) was “under 10%”, the “productive life of culture” value (Chlorella sp. [5]; culture that received one pH treatment) was “approximately 14 days” and the “productive life of culture (lasted until day, then discarded)” value (Chlorella sp. [5]; culture that received two pH treatments) was no less than 20 days. For the same molecule, the cell dry weight (Chlorella sp. [5]; 0 h) was 1.05 (g/L), the cell dry weight (Chlorella sp. [5]; 48 h) was 2.79 g/L and the cell dry weight (Chlorella sp. [5]; 96 h) was 3.87 g/L. It also gave a cell dry weight (Chlorella sp. [5]; 144 h) of 4.79 g/L, a cell dry weight (Chlorella; raised to 8.5 with NaOH, 0 h) of 1.2 g/L and a cell dry weight (Chlorella; 11 h) of 1.4 g/L. For the same molecule, the cell dry weight (Chlorella; 24 h) was 1.6 g/L, the cell dry weight (Chlorella; 35 h) was 2.2 g/L and the cell dry weight (Chlorella; 48 h) was 2.5 g/L. It also gave a cell dry weight (Chlorella; 59 h) of 3.5 g/L, a cell dry weight (Chlorella; 72 h) of 4.0 g/L and a cell dry weight (Chlorella; 83 h) of 4.8 g/L. For the same molecule, the cell dry weight (Chlorella; 96 h) was 5.1 g/L, the cell dry weight (Chlorella; 107 h) was 5.4 g/L and the cell dry weight (Chlorella; 120 h) was 5.7 g/L. The cell dry weight (Chlorella; 131 h) was 6.1 g/L, the cell dry weight (Chlorella; 144 h) was 6.1 g/L and the cell dry weight (Chlorella; 155 h (after partial harvest)) was 1.9 g/L. For the same molecule, the cell dry weight (Chlorella; 168 h) was 1.8 g/L, the “total bacteria live count lower than the untreated culture” value ([6]; immediately following treatment) was “approximately 2 logs” and the bacteria count ([6]; 0 h) was 4.00E+04 CFU. The bacteria count ([6]; 24 h) was 1.50E+07 CFU, the bacteria count ([6]; 48 h) was 1.20E+08 CFU and the bacteria count ([6]; 72 h) was 2.20E+08 CFU. For the same molecule, the bacteria count ([6]; 96 h) was 1.30E+08 CFU, the bacteria count ([6]; 120 h) was 1.20E+08 CFU and the bacteria count ([6]; 144 h) was 1.50E+08 CFU. For the same molecule, the “Cytophaga sp. detection by qPCR” value (Cytophaga sp.) was “detected in the untreated culture only”.
